Results published in patent US20130053434A1, “IRREVERSIBLE INHIBITORS USEFUL FOR THE TREATMENT OF KINASE-RELATED PATHOLOGIES” (CENTRE NATIONAL DE LA RECHERCHE SCIENTIFIQUE, priority 2009, published 2013).

What was measured:
KIT V559D = KIT V559D (Homo sapiens, UniProt P10721, V559D); experiment: kinase mutants: KIT V559D; format: binding; details: gain of function mutation
Procedure: (§1) Two representative library members (1afh and 1bgi) were then evaluated in a larger panel of kinases (402) using the technology described by Lockhart et al. (M. A. Fabian, et al., Nat. Biotechnol. 2005, 23, 329-336; M. W. Karaman, et al., Nat. Biotechnol. 2008, 26, 127-132). In this panel, 31 kinases out of the 46 kinases bioinformatically identified by Santi and coworkers are present along with numerous other kinases bearing a cysteine residue at other positions within the ATP-binding pocket (J. Zhang, P. L. Yang, N. S. Gray, Nat. Rev. Cancer 2009, 9, 28-39).
(§2) The two compounds were also evaluated against a series of mutations of Flt3 and KIT. It is known that several mutation in Flt3 lead to a gain of function or constitutive activity.

Flt3 = target: T1, Flt3 (Homo sapiens, UniProt P36888); experiment: panel of 402 kinases: Flt3; format: binding; details: read-out: residual activity relatively to control
T1 construct: purchased KinomeScan
Procedure: as §1
(§3) The selectivity profile was measure using the KinomeScan™ technology (http://www.kinomescan.com/) based on active-site dependent competition binding assay (Karaman, M. W., et al. (2008) Nat. Biotechnol. 26, 127-32; Fabian, M. A., et al. (2005) Nat. Biotechnol. 23, 329-36). Compounds 3 and 5 were profiled against a panel of 50 kinases including 42 kinases from the group of 48 kinases predicted by Santi et al. (Schirmer, A., et al. (2006) Proc. Natl. Acad. Sci. USA 103, 4234-9) to be targeted by hypothemycin and 5 mutants of FLT3 as well as 3 mutants of KIT. Both compounds were assayed at 1 μM. The results are expressed as a percentage of signal between a negative (DMSO) and positive (know binder) control [(test compound−positive control)/([…])×100].

GAK = target: T2, GAK (Homo sapiens, UniProt O14976); experiment: panel of 402 kinases: GAK; format: binding; details: read-out: residual activity relatively to control
T2 construct: purchased KinomeScan
T2 sequence (O14976 whole entry): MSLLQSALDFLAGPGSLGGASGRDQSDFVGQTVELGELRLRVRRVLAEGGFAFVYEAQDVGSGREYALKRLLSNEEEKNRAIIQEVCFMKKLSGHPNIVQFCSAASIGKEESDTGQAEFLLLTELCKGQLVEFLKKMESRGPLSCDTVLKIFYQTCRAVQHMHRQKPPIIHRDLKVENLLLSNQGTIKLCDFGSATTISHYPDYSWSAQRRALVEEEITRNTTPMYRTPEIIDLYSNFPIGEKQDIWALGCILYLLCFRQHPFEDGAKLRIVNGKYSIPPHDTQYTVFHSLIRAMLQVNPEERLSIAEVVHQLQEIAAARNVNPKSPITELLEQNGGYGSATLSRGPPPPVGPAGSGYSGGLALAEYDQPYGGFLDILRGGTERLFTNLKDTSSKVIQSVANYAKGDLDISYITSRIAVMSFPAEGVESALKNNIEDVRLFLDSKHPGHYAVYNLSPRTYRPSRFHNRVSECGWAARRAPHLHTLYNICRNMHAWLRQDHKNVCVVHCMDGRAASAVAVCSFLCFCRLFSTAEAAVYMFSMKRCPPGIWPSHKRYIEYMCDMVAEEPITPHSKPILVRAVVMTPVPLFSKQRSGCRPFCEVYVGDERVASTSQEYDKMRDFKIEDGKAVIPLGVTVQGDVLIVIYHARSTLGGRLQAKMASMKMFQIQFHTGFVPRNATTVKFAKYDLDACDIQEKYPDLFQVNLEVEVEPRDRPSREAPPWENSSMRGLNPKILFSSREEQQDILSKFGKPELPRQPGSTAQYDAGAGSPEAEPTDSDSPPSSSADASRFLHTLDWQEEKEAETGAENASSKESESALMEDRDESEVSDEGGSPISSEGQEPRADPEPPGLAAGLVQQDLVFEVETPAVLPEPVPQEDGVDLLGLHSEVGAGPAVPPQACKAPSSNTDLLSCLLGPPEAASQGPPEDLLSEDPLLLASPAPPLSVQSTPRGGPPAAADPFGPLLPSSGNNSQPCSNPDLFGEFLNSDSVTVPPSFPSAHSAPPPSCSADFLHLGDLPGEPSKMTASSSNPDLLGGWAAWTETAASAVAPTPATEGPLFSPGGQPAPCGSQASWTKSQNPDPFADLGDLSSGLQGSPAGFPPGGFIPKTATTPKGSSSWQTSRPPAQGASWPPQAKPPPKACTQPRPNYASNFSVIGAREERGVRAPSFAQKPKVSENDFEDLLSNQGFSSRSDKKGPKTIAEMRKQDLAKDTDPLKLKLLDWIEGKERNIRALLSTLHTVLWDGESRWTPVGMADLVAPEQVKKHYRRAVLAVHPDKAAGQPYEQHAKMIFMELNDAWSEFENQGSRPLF
Procedure: as §1, §3

TGFR2 = target: T3, TGFR2 (Homo sapiens, UniProt P37173); experiment: panel of 402 kinases: TGFR2; format: binding; details: read-out: residual activity relatively to control
T3 construct: purchased KinomeScan
Procedure: as §1, §3

TAK1 = target: T4, TAK1 (Homo sapiens, UniProt O43318); experiment: panel of 402 kinases: TAK1; format: binding; details: read-out: residual activity relatively to control
T4 construct: purchased KinomeScan
Procedure: as §1, §3

ERK1 = target: T5, ERK1 (Homo sapiens, UniProt P27361); experiment: panel of 402 kinases: ERK1; format: binding; details: 1 μM
T5 construct: purchased KinomeScan
Procedure: as §1, §3

PDGFRβ = target: T6, PDGFRβ (Homo sapiens, UniProt P09619); experiment: panel of 402 kinases: PDGFRβ; format: binding
T6 construct: purchased KinomeScan
T6 sequence (P09619 33-1106): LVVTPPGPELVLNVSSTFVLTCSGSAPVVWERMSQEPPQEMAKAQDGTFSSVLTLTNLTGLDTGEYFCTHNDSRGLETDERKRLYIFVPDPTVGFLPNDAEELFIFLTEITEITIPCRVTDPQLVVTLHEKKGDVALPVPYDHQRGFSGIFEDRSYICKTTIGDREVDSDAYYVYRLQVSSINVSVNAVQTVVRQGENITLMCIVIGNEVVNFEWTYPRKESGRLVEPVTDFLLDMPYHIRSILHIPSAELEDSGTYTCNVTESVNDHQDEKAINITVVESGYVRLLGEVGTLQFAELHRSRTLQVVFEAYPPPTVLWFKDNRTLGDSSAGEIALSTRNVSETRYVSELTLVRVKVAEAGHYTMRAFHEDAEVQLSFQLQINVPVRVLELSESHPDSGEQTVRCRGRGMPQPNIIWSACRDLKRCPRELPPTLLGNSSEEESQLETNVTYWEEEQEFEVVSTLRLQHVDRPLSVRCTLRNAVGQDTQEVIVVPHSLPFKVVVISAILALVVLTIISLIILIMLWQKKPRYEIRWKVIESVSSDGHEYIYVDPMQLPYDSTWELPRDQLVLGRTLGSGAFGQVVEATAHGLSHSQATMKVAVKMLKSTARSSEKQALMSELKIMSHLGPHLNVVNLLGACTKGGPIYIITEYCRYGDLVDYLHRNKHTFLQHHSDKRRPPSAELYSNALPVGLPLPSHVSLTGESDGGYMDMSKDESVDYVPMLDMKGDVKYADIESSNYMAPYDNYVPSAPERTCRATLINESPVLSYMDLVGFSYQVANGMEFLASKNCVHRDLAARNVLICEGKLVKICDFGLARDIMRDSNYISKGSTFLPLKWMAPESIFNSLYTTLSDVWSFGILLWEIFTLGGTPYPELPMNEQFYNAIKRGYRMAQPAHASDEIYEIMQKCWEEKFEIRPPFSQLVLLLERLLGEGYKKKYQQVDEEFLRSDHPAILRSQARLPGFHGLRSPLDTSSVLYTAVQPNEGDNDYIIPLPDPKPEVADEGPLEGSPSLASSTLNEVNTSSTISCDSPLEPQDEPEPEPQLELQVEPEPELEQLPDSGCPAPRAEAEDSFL
Procedure: as §1, §3

PRP4 = target: T7, PRP4 (Homo sapiens, UniProt Q13523); experiment: panel of 402 kinases: PRP4; format: binding; details: 1 μM
T7 construct: purchased KinomeScan
Procedure: as §1, §3

CDKL5 = target: T8, CDKL5 (Homo sapiens, UniProt O76039); experiment: panel of 402 kinases: CDKL5; format: binding; details: 1 μM
T8 construct: purchased KinomeScan
Procedure: as §1, §3

PDGFRα = target: T9, PDGFRα (Homo sapiens, UniProt P16234); experiment: panel of 402 kinases: PDGFRα; format: binding; details: read-out: residual activity relatively to control
T9 construct: purchased KinomeScan
Procedure: as §1, §3

MEK1 = MEK1 (Homo sapiens, UniProt Q02750); experiment: panel of 402 kinases: MEK1; format: binding; details: read-out: residual activity relatively to control
Procedure: as §1, §3

MKNK2 = target: T10, MKNK2 (Homo sapiens, UniProt Q9HBH9); experiment: panel of 402 kinases: MKNK2; format: binding; details: read-out: residual activity relatively to control
T10 construct: purchased KinomeScan
Procedure: as §1, §3

MKNK1 = target: T11, MKNK1 (Homo sapiens, UniProt Q9BUB5); experiment: panel of 402 kinases: MKNK1; format: binding; details: read-out: residual activity relatively to control
T11 construct: purchased KinomeScan
Procedure: as §1, §3

KIT L576P = KIT L576P (Homo sapiens, UniProt P10721, L576P); experiment: kinase mutants: KIT L576P; format: binding; details: gain of function mutation
Chain of KIT L576P (P10721 26-976 L576P): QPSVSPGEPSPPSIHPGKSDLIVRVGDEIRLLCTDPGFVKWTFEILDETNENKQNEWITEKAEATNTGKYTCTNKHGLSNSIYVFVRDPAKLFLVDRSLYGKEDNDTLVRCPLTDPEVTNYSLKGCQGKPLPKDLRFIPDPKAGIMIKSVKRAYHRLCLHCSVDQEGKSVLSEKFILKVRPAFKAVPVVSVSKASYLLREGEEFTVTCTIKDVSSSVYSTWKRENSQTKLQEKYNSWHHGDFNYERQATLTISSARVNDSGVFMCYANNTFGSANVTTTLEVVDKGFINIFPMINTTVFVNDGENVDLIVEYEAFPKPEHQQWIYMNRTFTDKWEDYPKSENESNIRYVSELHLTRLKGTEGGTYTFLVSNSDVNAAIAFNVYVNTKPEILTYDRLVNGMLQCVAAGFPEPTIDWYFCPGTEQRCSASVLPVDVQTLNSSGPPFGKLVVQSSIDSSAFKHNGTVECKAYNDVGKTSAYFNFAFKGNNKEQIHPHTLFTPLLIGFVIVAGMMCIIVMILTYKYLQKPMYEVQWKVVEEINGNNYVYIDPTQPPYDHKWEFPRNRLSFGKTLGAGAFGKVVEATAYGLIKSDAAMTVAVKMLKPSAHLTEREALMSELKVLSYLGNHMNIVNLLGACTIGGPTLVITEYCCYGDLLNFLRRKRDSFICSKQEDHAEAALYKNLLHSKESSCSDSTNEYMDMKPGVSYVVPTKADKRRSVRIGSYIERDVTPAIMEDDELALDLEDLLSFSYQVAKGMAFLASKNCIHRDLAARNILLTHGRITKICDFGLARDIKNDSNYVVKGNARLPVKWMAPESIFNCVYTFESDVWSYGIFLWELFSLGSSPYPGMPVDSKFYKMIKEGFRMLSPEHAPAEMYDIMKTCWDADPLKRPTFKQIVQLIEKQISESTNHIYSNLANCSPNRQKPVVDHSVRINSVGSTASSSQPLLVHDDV
Procedure: as §1, §2

KIT V559D, T670I = KIT V559D, T670I (Homo sapiens, UniProt P10721, T670I/V559D); experiment: kinase mutants: KIT V559D, T670I; format: binding; details: dual mutation conferring resistance to imatinib
Chain of KIT V559D, T670I (P10721 26-976 V559D/T670I): as the sequence (P10721 26-976 L576P) above, with V534D, P551L, T645I counted along it
Procedure: as §1, §2

panel of kinases (402) = experiment: larger panel of kinases (402), competition binding, whole panel; details: 1 μM; for number of kinases out of 31 with more than 50% residual activity: 31 of the 46 predicted kinases
Procedure: as §1, §3

GSK3β = GSK3β (Homo sapiens, UniProt P49841); experiment: panel of 402 kinases: GSK3β; format: binding; details: 1 μM
Procedure: as §1, §3

NLK = target: T12, NLK (Homo sapiens, UniProt Q9UBE8); experiment: panel of 402 kinases: NLK; format: binding; details: 1 μM
T12 construct: purchased KinomeScan
Procedure: as §1, §3

Flt3 K663Q = Flt3 K663Q (Homo sapiens, UniProt P36888, K663Q); experiment: kinase mutants: Flt3 K663Q; format: binding; details: gain of function mutation
Procedure: as §1, §2

Flt3 D835Y = Flt3 D835Y (Homo sapiens, UniProt P36888, D835Y); experiment: kinase mutants: Flt3 D835Y; format: binding; details: gain of function mutation
Procedure: as §1, §2

Flt3 N841L = experiment: kinase mutants: Flt3 N841L; format: binding; details: gain of function mutation
Procedure: as §1, §2

KIT V559D, V654A = KIT V559D, V654A (Homo sapiens, UniProt P10721, V559D/V654A); experiment: kinase mutants: KIT V559D, V654A; format: binding; details: dual mutation conferring resistance to imatinib
Chain of KIT V559D, V654A (P10721 26-976 V559D/V654A): as the sequence (P10721 26-976 L576P) above, with V534D, P551L, V629A counted along it
Procedure: as §1, §2

Flt1 = target: T13, Flt1 (Homo sapiens, UniProt P17948); experiment: panel of 402 kinases: Flt1; format: binding
T13 construct: purchased KinomeScan
T13 sequence (P17948 27-1338): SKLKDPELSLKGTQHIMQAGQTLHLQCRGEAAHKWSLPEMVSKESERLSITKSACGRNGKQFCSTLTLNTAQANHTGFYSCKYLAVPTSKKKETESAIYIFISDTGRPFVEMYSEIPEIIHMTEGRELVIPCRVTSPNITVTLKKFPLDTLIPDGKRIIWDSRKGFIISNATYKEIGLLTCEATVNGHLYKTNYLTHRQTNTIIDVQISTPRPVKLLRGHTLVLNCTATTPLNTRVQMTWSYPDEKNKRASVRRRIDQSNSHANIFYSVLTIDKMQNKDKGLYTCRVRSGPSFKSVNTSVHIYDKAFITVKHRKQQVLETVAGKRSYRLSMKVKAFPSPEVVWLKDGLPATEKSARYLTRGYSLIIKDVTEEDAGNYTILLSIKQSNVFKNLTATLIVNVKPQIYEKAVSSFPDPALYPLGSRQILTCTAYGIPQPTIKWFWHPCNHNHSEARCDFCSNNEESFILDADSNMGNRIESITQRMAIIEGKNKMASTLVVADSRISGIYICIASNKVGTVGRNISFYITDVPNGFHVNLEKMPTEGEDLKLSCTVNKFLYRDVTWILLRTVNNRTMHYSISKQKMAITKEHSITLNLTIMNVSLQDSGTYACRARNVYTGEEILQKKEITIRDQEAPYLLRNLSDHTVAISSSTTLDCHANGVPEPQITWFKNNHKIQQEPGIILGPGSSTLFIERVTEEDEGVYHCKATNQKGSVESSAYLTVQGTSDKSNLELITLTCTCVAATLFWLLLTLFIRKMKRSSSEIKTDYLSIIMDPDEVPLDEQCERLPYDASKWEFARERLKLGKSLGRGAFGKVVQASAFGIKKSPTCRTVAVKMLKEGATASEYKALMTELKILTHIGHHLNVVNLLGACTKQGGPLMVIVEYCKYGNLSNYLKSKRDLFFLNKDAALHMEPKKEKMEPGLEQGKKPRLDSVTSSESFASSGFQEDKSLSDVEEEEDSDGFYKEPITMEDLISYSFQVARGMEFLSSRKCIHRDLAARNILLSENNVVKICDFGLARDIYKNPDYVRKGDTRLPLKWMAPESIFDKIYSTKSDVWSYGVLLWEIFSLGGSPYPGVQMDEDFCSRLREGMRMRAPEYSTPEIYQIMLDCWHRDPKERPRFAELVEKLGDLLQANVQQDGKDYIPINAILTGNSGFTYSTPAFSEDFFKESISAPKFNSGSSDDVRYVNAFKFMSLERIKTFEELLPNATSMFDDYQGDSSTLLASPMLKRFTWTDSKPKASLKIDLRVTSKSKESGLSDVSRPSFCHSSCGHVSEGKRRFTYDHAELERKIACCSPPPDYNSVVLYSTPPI
Procedure: as §1, §3

KIT D816V = KIT D816V (Homo sapiens, UniProt P10721, D816V); experiment: kinase mutants: KIT D816V; format: binding; details: gain of function mutation
Chain of KIT D816V (P10721 26-976 D816V): as the sequence (P10721 26-976 L576P) above, with P551L, D791V counted along it
Procedure: as §1, §2

NIK = target: T14, NIK (Homo sapiens, UniProt Q99558); experiment: panel of 402 kinases: NIK; format: binding; details: 1 μM
T14 construct: purchased KinomeScan
Procedure: as §1, §3

MEK2 = target: T15, MEK2 (Homo sapiens, UniProt P36507); experiment: panel of 402 kinases: MEK2; format: binding; details: read-out: residual activity relatively to control
T15 construct: purchased KinomeScan
Procedure: as §1, §3

KIT = KIT (Homo sapiens, UniProt P10721); experiment: panel of 402 kinases: KIT; format: binding; details: read-out: residual activity relatively to control
Chain of KIT (P10721 26-976): as the sequence (P10721 26-976 L576P) above, with P551L counted along it
Procedure: as §1, §3

[1] = from CCOCOc1cc(OCC[C@@H]2OC(C)(C)O[C@@H]2C(OC(=O)c2ccccc2)/C(F)=C\C[C@@H](C)O)c(C(=O)O)c(OCOCC)c1; ester bond; DIAD/PPh3; toluene; 10.5 mM; 23.0 °C; 1.5 h; 2 steps
MEK4 = target: T16, MEK4 (Homo sapiens, UniProt P45985); experiment: panel of 402 kinases: MEK4; format: binding; details: read-out: residual activity relatively to control
T16 construct: purchased KinomeScan
Procedure: as §1, §3

[2] = tested on: orthotopically implanted RENCA-LN cells; experiment: orthotopic murine renal cell carcinoma (RENCA) model, in vivo efficacy; details: untreated group had two animals; groups of 12
Procedure: RENCA-LN cells were obtained and cultured as described above. Sixty female BALB/c mice of 5 to 6 weeks were orthotopically implanted RENCA-LN cells into the left kidney (4×10^5 cells in 25 μl aliquots into the subcapsular space through a flank incision, Day 0). The mice were randomly divided into 5 groups of 12 mice each. On day 2, therapy was initiated. Animals in the vehicle control group (group 1) received 10 ml/kg Vehicle (PBS w/o Ca/Mg, 10% DMSO, 40% PEG-300) i.p. once daily until day 19. Animals of positive control group (group 2) received 40 mg/kg Sunitinib (Sutent®) p.o. once daily until day 20. Animals of treatment group 3 and 4 received 20 mg/kg of 3 once daily and every other day respectively (i.p.). Animals of treatment group 5 received 20 mg/kg of 5 once daily (i.p.). Due to partial weight loss, therapy in Groups 3 and 5 was suspended on days 11 and 12 and stopped on day 17. On day 20, the study was terminated and a necropsy performed. All animals were weighted, anaesthetised by isoflurane and killed by exsanguination. Two animals in group 1 were found dead on day 19 and 1 animal in group 3 and 5 on day 11 and 9 respectively. At necropsy, primary tumor weight and volume, lung weight and number of lung metastases were determined. Primary tumor tissues were collected and divided into two parts. One part of each tumor was snap-frozen in liquid nitrogen and stored at −80° C. whereas the other part was analyzed via ex vivo bioluminescence imaging. During the course of the study, the growth of the orthotopically implanted RENCA tumors was monitored on days 7, 14 and 19 using in vivo bioluminescence imaging. For this purpose, luciferin was injected intraperitoneally (i.p.) into the mice and light emission was measured post injection (10 min) using a NightOWL LB 981 bioluminescence imaging system (Berthold Technologies, Germany). The migration of RENCA tumor cells into the lung (metastasis) was analyzed post necropsy by counting nodules and using the luciferase assay. For this purpose, lungs were collected, homogenized, and assayed for luciferase activity using the kit from Promega (E1501) according to the manufacturer's instructions. Protein concentrations were determined using a Bradford assay and used to normalize luciferase activities (except for the primary tumor). A histological examination of the tumor vasculature was performed. For this purpose, cryosections of primary tumor tissues (thickness=5-10 μm) from the snap-frozen portion of the organ and blood vessels were visualized by immunohistochemical staining for CD 31 (PECAM-1; PharMingen, San Diego, Calif.). […] Statistical analysis of efficacy data was done using the Mann Whitney test.

[3] = read-out: residual activity relatively to control

Chain of KIT V559D (P10721 26-976 V559D): as the sequence (P10721 26-976 L576P) above, with V534D, P551L counted along it

SMILES: C[C@H]1C/C=C\C(=O)[C@@H](O)[C@@H](O)CCCc2cc(O)cc(O)c2C(=O)O1 [1afh]
- activity against mutant (KIT V559D): retained their activity
- remaining activity at 1 µM (Flt3): < 10%
- remaining activity at 1 µM (GAK): < 10%
- remaining activity at 1 µM (TGFR2): < 10%
- remaining activity at 1 µM (TAK1): < 10%
- inhibition (ERK1): not inhibited
- remaining activity at 1 µM (PDGFRβ; [3]): < 10%
- inhibition (PRP4): not inhibited
- inhibition (CDKL5): not inhibited
- remaining activity at 1 µM (PDGFRα): < 10%
- remaining activity at 1 µM (MEK1): < 10%
- remaining activity at 1 µM (MKNK2): < 10%
- remaining activity at 1 µM (MKNK1): < 10%
- activity against mutant (KIT L576P): retained their activity
- activity against dual mutation (KIT V559D, T670I): not active
- number of kinases outside of the set of 46 predicted kinases showing significant inhibition (STK36 and PRKD2) (panel of kinases (402)): two
- number of kinases out of 31 with more than 50% residual activity (panel of kinases (402)): 11
- inhibition (GSK3β): not inhibited
- inhibition (NLK): not inhibited
- sensitivity of mutant to the inhibitors (Flt3 K663Q): remained equally sensitive
- activity against mutant compared with wild type (Flt3 D835Y): more active than against the wild type
- sensitivity of mutant to the inhibitors (Flt3 N841L): remained equally sensitive
- activity against dual mutation (KIT V559D, V654A): not active
- remaining activity at 1 µM (Flt1; [3]): < 10%
- activity against mutant (KIT D816V): retained their activity
- inhibition (NIK): not inhibited
- remaining activity at 1 µM (MEK2): < 10%
- remaining activity at 1 µM (KIT): < 10%

SMILES: CCOCOc1cc2c(c(OCOCC)c1)C(=O)O[C@@H](C)C/C=C(/F)C(OC(=O)c1ccccc1)[C@H]1OC(C)(C)O[C@H]1CCO2 (stereo partly shown)
- ring closure, yield of all isomers [1]: 70%

SMILES: O=C1OCC/C=C\C(=O)[C@@H](O)[C@@H](O)[C@H](O)COc2cc(O)cc(O)c21 [1bgi]
- remaining activity at 1 µM (MEK4): 1%
- activity against mutant (KIT V559D): retained their activity
- activity compared to 1afh (PDGFRβ; 1 μM): ten times less active
- activity against mutant (KIT L576P): retained their activity
- activity against dual mutation (KIT V559D, T670I): not active
- number of kinases outside of the set of 46 predicted kinases showing significant inhibition (STK36 and PRKD2) (panel of kinases (402)): two
- number of kinases out of 31 with more than 50% residual activity (panel of kinases (402)): 19
- sensitivity of mutant to the inhibitors (Flt3 K663Q): remained equally sensitive
- activity against mutant compared with wild type (Flt3 D835Y): more active than against the wild type
- sensitivity of mutant to the inhibitors (Flt3 N841L): remained equally sensitive
- activity against dual mutation (KIT V559D, V654A): not active
- activity compared to 1afh (Flt1; 1 μM): ten times less active
- activity against mutant (KIT D816V): retained their activity

SMILES: CCN(CC)CCNC(=O)c1c(C)[nH]c(/C=C2\C(=O)Nc3ccc(F)cc32)c1C [sunitinib, reference compound]
- animals having a high count of lung metastatic nodules [2]: 5
